# Reference: patent US11040033B2 (Gilead Sciences, Inc., priority 2017, dated 2021)
# Target: T1, IDO1 (Homo sapiens, UniProt P14902)
# T1 construct: HeLa cells were treated with a test compound in the presence of IFNγ, which induces IDO1 expression; endogenous in cells; host or cells: H1-HeLa cells (ATCC #CRL-1958), induced with IFNγ
# Assay: Cell-based (HeLa) assay for measurement of IDO1 inhibition (kynurenine levels in supernatant after IFNγ induction)
# Settings: H1-HeLa cells, IFNγ-induced IDO1, 48 hour incubation, kynurenine absorbance at 480 nm; geometric mean of a minimum of four determinations
# Experimental: To measure IDO1 inhibition in tissue culture, HeLa cells were treated with a test compound in the presence of IFNγ, which induces IDO1 expression. Following incubation, cell supernatants were assayed for kynurenine levels, an indicator of IDO1 activity.
# H1-HeLa cells (ATCC #CRL-1958) were seeded in 384-well plates (Greiner #82051-282) at a volume […] (Corning #15-018-CM) supplemented with 10% FBS (Corning #35-011-CV) and 1% P/S/G (Corning #30-009-CL) at a density of 1,250 cells/well and incubated overnight at 37° C., 5% CO2/100% humidity. The following day, the test compounds were added in DMSO (0.5% final) at various concentrations, and IDO1 was inducibly expressed by the addition of 50 uL/well of 50 ng/mL of INFγ(Peprotech #300-02) in cell plating media. As a positive control, 50 uL of the cell plating media without IFNγ was added to several wells. Following a 48 hour incubation, the plates were spun down at 1,200 RPM for 5 min at 10° C. 65 μL/well of the supernatant was then transferred to new 384-well plates (Thermo #262160) that contained 10 uL/well of 30% TCA (Sigma #T0699), and the plates were sealed and incubated at 60° C. for 30 min. The plates were then centrifuged for 15 min at 2,000 RPM at 10° C. 40 μL/well of the supernatant was transferred to new 384-well plates (Thermo #262160) and was reacted with 40 μL/well of 2% (w/v) p-dimethylaminobenzaldehyde (Sigma #156417) in glacial acetic acid (Sigma #A6283). The reaction was incubated at room temperature for 10 min and absorbance at 480 nm was read using a PerkinElmer Envision plate reader.
# Data in Table 1 were normalized based on positive (−IFNγ) and negative (+IFNγ) controls and EC50 values were calculated from the fit of the dose-response curves to a four-parameter equation. All EC50 values represent geometric mean values of a minimum of four determinations. These assays generally produced results within 2-fold of the reported mean.
# T1 sequence (P14902 whole entry): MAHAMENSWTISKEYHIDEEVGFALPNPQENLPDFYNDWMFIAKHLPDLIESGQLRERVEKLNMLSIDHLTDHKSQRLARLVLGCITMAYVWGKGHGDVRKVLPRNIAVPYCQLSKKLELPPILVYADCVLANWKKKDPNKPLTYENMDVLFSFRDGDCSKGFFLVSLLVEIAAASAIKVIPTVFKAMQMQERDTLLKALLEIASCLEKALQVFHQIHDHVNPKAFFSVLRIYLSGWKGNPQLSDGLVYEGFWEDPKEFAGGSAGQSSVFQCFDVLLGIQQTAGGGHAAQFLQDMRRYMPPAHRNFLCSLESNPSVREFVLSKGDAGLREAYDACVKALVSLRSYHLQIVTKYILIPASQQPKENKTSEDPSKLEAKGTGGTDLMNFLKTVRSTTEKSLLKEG
row,Compound,EC50 [nM]
1,"Cc1nnc(-c2ncc3c(-c4ccc(C)c(C(=O)Nc5ccc(F)cc5)c4)cccn23)o1 [Example 2, N-(4-fluorophenyl)-2-methyl-5-(3-(5-methyl-1,3,4-oxadiazol-2-yl)imidazo[1,5-a]pyridin-8-yl)benzamide]",3840
2,"Cc1ncc(-c2cccn3c(-c4cccc(F)c4F)ncc23)cc1C(=O)Nc1ccc(F)c(Br)c1 [Example 63, N-(3-bromo-4-fluorophenyl)-5-(3-(2,3-difluorophenyl)imidazo[1,5-a]pyridin-8-yl)-2-methylnicotinamide]",307
3,"Cc1ncc(-c2cccn3c(-c4ncccc4F)ncc23)cc1C(=O)Nc1ccc(F)cc1 [Example 19, N-(4-fluorophenyl)-5-(3-(3-fluoropyridin-2-yl)imidazo[1,5-a]pyridin-8-yl)-2-methylnicotinamide]",199
4,Cc1ccc(-c2cccn3c(-c4nnco4)ncc23)cc1C(=O)Nc1ccc(F)cc1 [Example 7],1220
5,"Cc1ncc(-c2cccn3c(C4CCCC4)ncc23)cc1C(=O)Nc1ccc(F)cc1 [Example 74, 5-(3-cyclopentylimidazo[1,5-a]pyridin-8-yl)-N-(4-fluorophenyl)-2-methylnicotinamide]",460
6,"Cc1ccc(-c2cccn3c(-c4ccc(F)cc4C)nnc23)cc1C(=O)Nc1ccc(F)cc1 [Example 5, 5-(3-(4-fluoro-2-methylphenyl)-[1,2,4]triazolo[4,3-a]pyridin-8-yl)-N-(4-fluorophenyl)-2-methylbenzamide]",1410
7,"Cc1ncc(-c2cccn3c(-c4cccc(F)c4F)nc(Br)c23)cc1C(=O)Nc1ccc(F)cc1 [Example 92, 5-(1-bromo-3-(2,3-difluorophenyl)imidazo[1,5-a]pyridin-8-yl)-N-(4-fluorophenyl)-2-methylnicotinamide]",273
8,"Cc1ccc(-c2nccn3c(-c4cccc(F)c4F)ncc23)cc1C(=O)Nc1ccc(F)cc1 [Example 51, 5-(3-(2,3-difluorophenyl)imidazo[1,5-a]pyrazin-8-yl)-N-(4-fluorophenyl)-2-methylbenzamide]",656
9,"Cc1cc(NC(=O)c2cc(-c3cccn4c(-c5cccc(F)c5F)ncc34)cnc2C)ccn1 [Example 71, 5-(3-(2,3-difluorophenyl)imidazo[1,5-a]pyridin-8-yl)-2-methyl-N-(2-methylpyridin-4-yl)nicotinamide]",656
10,"Cc1ncc(-c2cccn3c(C4CC4)ncc23)cc1C(=O)Nc1ccc(F)cc1 [Example 90, 5-(3-cyclopropylimidazo[1,5-a]pyridin-8-yl)-N-(4-fluorophenyl)-2-methylnicotinamide]",2940
11,"Cc1cc(-c2cnc(C)c(C(=O)Nc3ccc(F)cc3)c2)c2cnc(-c3cccc(F)c3F)n2c1 [Example 78, 5-(3-(2,3-difluorophenyl)-6-methylimidazo[1,5-a]pyridin-8-yl)-N-(4-fluorophenyl)-2-methylnicotinamide]",895
12,"O=C(Nc1ccc(F)cc1)c1cccc(-c2cccn3c(-c4cccc(F)c4F)ncc23)n1 [Example 83, 6-(3-(2,3-difluorophenyl)imidazo[1,5-a]pyridin-8-yl)-N-(4-fluorophenyl)picolinamide]",207

# Stronger by EC50, values ahead:
row,EC50 [nM],Compound
1,79.5,"Cc1ncc(-c2cccn3c(-c4cccc(F)c4F)ncc23)cc1C(=O)Nc1ccc(OC(F)F)cc1 [Example 67, N-(4-(difluoromethoxy)phenyl)-5-(3-(2,3-difluorophenyl)imidazo[1,5-a]pyridin-8-yl)-2-methylnicotinamide]"
2,36.6,"Fc1ccc2[nH]c(-c3cc(-c4cccn5c(-c6cccc(F)c6F)ncc45)cnc3C(F)(F)F)nc2c1 [Example 98, 2-(5-(3-(2,3-difluorophenyl)imidazo[1,5-a]pyridin-8-yl)-2-(trifluoromethyl)pyridin-3-yl)-5-fluoro-1H-benzo[d]imidazole]"
3,75.3,Cc1c(F)cc(-c2cccn3c(-c4cccc(F)c4F)ncc23)cc1C(=O)Nc1ccc(F)cc1 [Example 84]
4,34.9,"O=C(Nc1ccc(F)cc1)c1cc(-c2cccn3c(-c4cc[nH]n4)ncc23)ccc1C(F)(F)F [Example 32, 5-(3-(1H-pyrazol-3-yl)imidazo[1,5-a]pyridin-8-yl)-N-(4-fluorophenyl)-2-(trifluoromethyl)benzamide]"
5,66.4,"O=C(Nc1ccc(F)cc1)c1cc(-c2cccn3c(-c4ccncn4)ncc23)ccc1C(F)(F)F [Example 26, N-(4-fluorophenyl)-5-(3-(pyrimidin-4-yl)imidazo[1,5-a]pyridin-8-yl)-2-(trifluoromethyl)benzamide]"
6,104,"Cc1ncc(-c2cccn3c(-c4c(F)cccc4F)ncc23)cc1C(=O)Nc1ccc(F)cc1 [Example 24, 5-(3-(2,6-difluorophenyl)imidazo[1,5-a]pyridin-8-yl)-N-(4-fluorophenyl)-2-methylnicotinamide]"
7,76.8,Cc1ccc(-c2cccn3c(-c4cccc(F)c4F)ncc23)nc1C(=O)Nc1ccc(F)cc1 [Example 57]
8,30.6,"Cc1ncc(-c2cccn3c(-c4ccc(F)cc4F)ncc23)cc1C(=O)Nc1ccc(F)cc1 [Example 89, 5-(3-(2,4-difluorophenyl)imidazo[1,5-a]pyridin-8-yl)-N-(4-fluorophenyl)-2-methylnicotinamide]"
9,17.2,"Cc1ncc(-c2cccn3c(-c4cccc(F)c4F)ncc23)cc1C(=O)Nc1ccc(F)cc1 [Example 43, 5-(3-(2,3-difluorophenyl)imidazo[1,5-a]pyridin-8-yl)-N-(4-fluorophenyl)-2-methylnicotinamide]"
10,124,"O=C(Nc1ccc(F)cc1)c1cc(-c2cccn3c(-c4cccc(F)c4F)ncc23)cnc1N1CCC1 [Example 94, 2-(azetidin-1-yl)-5-(3-(2,3-difluorophenyl)imidazo[1,5-a]pyridin-8-yl)-N-(4-fluorophenyl)nicotinamide]"
11,101,Cc1ncc(-c2cccn3c(-c4cccc(F)c4F)ncc23)cc1C(=O)Nc1ccc(F)c(F)c1 [Example 68]
12,64.9,"Cc1ncc(-c2cccn3c(-c4cccc(F)c4F)ncc23)cc1-c1nc2cc(F)ccc2[nH]1 [Example 97, 2-(5-(3-(2,3-difluorophenyl)imidazo[1,5-a]pyridin-8-yl)-2-methylpyridin-3-yl)-5-fluoro-1H-benzo[d]imidazole]"
13,31.1,"O=C(Nc1ccc(F)cc1)c1cc(-c2cccn3c(-c4ccccn4)ncc23)ccc1C(F)(F)F [Example 33, N-(4-fluorophenyl)-5-(3-(pyridin-2-yl)imidazo[1,5-a]pyridin-8-yl)-2-(trifluoromethyl)benzamide]"
14,61.7,"Cc1ncc(-c2cccn3c(-c4cc(F)cc(F)c4)ncc23)cc1C(=O)Nc1ccc(F)cc1 [Example 27, 5-(3-(3,5-difluorophenyl)imidazo[1,5-a]pyridin-8-yl)-N-(4-fluorophenyl)-2-methylnicotinamide]"
15,13.3,"Cc1ncc(-c2cccn3c(-c4cccc(F)c4Cl)ncc23)cc1C(=O)Nc1ccc(F)cc1 [Example 87, 5-(3-(2-chloro-3-fluorophenyl)imidazo[1,5-a]pyridin-8-yl)-N-(4-fluorophenyl)-2-methylnicotinamide]"
16,23.9,"[2H]c1c([2H])c(NC(=O)c2cc(-c3cccn4c(-c5cccc(F)c5F)ncc34)cnc2C)c([2H])c([2H])c1F [Example 73, 5-(3-(2,3-difluorophenyl)imidazo[1,5-a]pyridin-8-yl)-N-(4-fluorophenyl-2,3,5,6-d4)-2-methylnicotinamide]"
